Assay results taken from paper PMC12472494, “Anticonvulsant Potential of 1-Aryl-6,7-dimethoxy-1,2,3,4-tetrahydroisoquinolines: Insights from Strychnine and Nicotine Models in In Vivo and In Silico Studies” (Pharmaceuticals, 2025).
Where “and” joins values, the source holds several entries; their conditions need not be identical. Equal entries are not always repeated.

Experiments:
[1] = design: method as in PMID 36677539; details: per os; cited from earlier work
[2] = system: tremorogenic and convulsive actions of nicotine; test: Nicotine-induced tremor and seizure model; format: in vivo, mice; details: for responders at 1 mg/kg: Mus musculus, po, read-out: Survival Rate; for Duration of Seizures / Latency to Seizure Onset: oral dose 1.0 mg/kg 60 min before nicotine 10 mg/kg s.c., mean ± SD, N = 10
Source text: (§1) The anticonvulsant effects of the examined substances were studied in male white mice weighing 18–22 g, divided into the following groups: control (including the strychnine and nicotine groups), carbamazepine group, Convulex group, and experimental groups (one for each tested substance). Simple randomization (“heads or tails” coin toss) was used to assign animals to groups. Each group contained 10 animals. Healthy animals were included in the experiments after a 14-day quarantine period. No animals were excluded from the study. Convulsant agents were administered subcutaneously at doses of 10.0 mg/kg for nicotine (Sigma–Aldrich, Saint Louis, MO, USA) and 1.5 mg/kg for strychnine (Sigma–Aldrich, Saint Louis, MO, USA), 60 min after the oral administration of the test substances at doses ranging from 0.1 to 10 mg/kg. The onset time, duration of tremors and seizures, and survival rate of the animals were recorded. Carbamazepine (Darnitsa, Kiev, Ukraine) at doses of 5.0–10.0 mg/kg and Convulex (valproate) (Gerot Pharmazeutika GmbH, Vienna, Austria) at doses of 75.0–100.0 mg/kg (based on the therapeutic anticonvulsant dose) were used as reference drugs.
(§2) Data were presented as mean ± SD for different groups. Statistical analysis was performed using OriginPro 9.0 (MicroCal Software, Northampton, MA, USA), with p < 0.05 considered statistically significant.

[3] = system: strychnine-induced seizures; test: Strychnine-induced seizure model; format: in vivo, mice; details: oral dose 1.0 mg/kg 60 min before strychnine 1.5 mg/kg s.c., N = 10; for responders at 1 mg/kg: Mus musculus, read-out: Survival Rate; for Duration of Tremor and Seizures / Latency to Tremor and Seizure Onset: mean ± SD
Source text: as §1, §2

SMILES	LD50 [1]	responders at 1 mg/kg [2] [%]	Duration of Seizures [2] [min]	Latency to Seizure Onset [2] [min]	responders at 1 mg/kg [3] [%]	Duration of Tremor and Seizures [3] [min]	Latency to Tremor and Seizure Onset [3] [min]	survival rate of the animals increased to ([2]; at low doses (0.1–5 mg/kg))	activity against tremorogenic and convulsive actions of nicotine versus reference drugs (in words) ([2]; doses of 0.1–5 mg/kg)	survival of poisoned animals compared to carbamazepine and valproate (in words) ([2]; mouse, in vivo)
COc1cc2c(cc1OC)C(c1ccccc1[N+](=O)[O-])NCC2 (stereo not drawn) [Compound 7, 1-(2′-Nitrophenyl)-6,7-dimethoxy-1,2,3,4-tetrahydroisoquinoline]	948.9 (916.8 ± 975.8) mg/kg	70	7.6 ± 0.8	2.3 ± 0.07	40	0.32 ± 0.7	14.2 ± 1.7	–	–	–
COc1cc2c(cc1OC)C(c1cc3c(cc1Cl)OCO3)NCC2 (stereo not drawn) [Compound 31, 1-(4′,5′-Methylenedioxy-2′-chlorophenyl)-6,7-dimethoxy-1,2,3,4-tetrahydroisoquinoline]	520.8 (491.9 ± 545.4) mg/kg	90	10.7 ± 0.9	2.3 ± 0.08	30	0.59 ± 0.5	13.6 ± 1.9	90–100%	comparable activity to the reference drugs	–
COc1cc2c(cc1OC)C(c1cc(Br)ccc1O)NCC2 (stereo not drawn) [Compound 17, 1-(2′-Hydroxy-5′-bromophenyl)-6,7-dimethoxy-1,2,3,4-tetrahydroisoquinoline]	297.3 (270.2 ± 323.7) mg/kg	70	8.1 ± 0.8	2.1 ± 0.07	40	0.61 ± 0.5	15.7 ± 1.6	–	–	–
COc1cc2c(cc1OC)C(c1ccc([N+](=O)[O-])cc1)NCC2 (stereo not drawn) [Compound 9, 1-(4′-Nitrophenyl)-6,7-dimethoxy-1,2,3,4-tetrahydroisoquinoline]	1898.8 (703.5 ± 2273.4) mg/kg	90	16.7 ± 0.4	2.5 ± 0.03	40	0.51 ± 0.5	13.5 ± 1.9	–	–	–
COc1cc(Br)c(C2NCCc3cc(OC)c(OC)cc32)cc1O (stereo not drawn) [Compound 24, 1-(2′-Bromo-4′-methoxy-5′-hydroxyphenyl)-6,7-dimethoxy-1,2,3,4-tetrahydroisoquinoline]	546.9 (516.3 ± 571.6) mg/kg	70	7.3 ± 0.3	2.1 ± 0.09	30	0.32 ± 0.4	10.2 ± 1.2	–	–	did not improve the survival
COc1cc2c(cc1OC)C(c1ccc(O)c(Br)c1)NCC2 (stereo not drawn) [Compound 18, 1-(3′-Bromo-4′-hydroxyphenyl)-6,7-dimethoxy-1,2,3,4-tetrahydroisoquinoline]	3850 mg/kg and 3793.8 (3395.8 ± 4088.1) mg/kg	70	8.9 ± 0.9	1.7 ± 0.04	50	0.56 ± 0.6	14.6 ± 1.5	–	–	–
